Measurements as given in the supplement of paper PMC13380429.

Key:
Details in all cases: 72 h
[1] = tested on: Caco-2; assay: cell viability relative to DMSO; higher = less toxic
[2] = tested on: Calu-3; assay: as above
[3] = tested on: HepG2; assay: as above
[4] = tested on: U2OS; assay: as above
[5] = tested on: Caco-2; assay: relative viability EC50 (midpoint between 100% and the lowest measured viability); higher = less toxic
[6] = tested on: Calu-3; assay: as above
[7] = tested on: HepG2; assay: as above
[8] = tested on: U2OS; assay: as above
[9] = tested on: Caco-2; assay: drug sensitivity score (DSS) for viability; higher = more toxic; extreme values may be limits of the assay
[10] = tested on: Calu-3; assay: as above
[11] = tested on: HepG2; assay: as above
[12] = tested on: U2OS; assay: as above
[13] = tested on: Vero E6; assay: cell viability relative to DMSO; higher = less toxic
[14] = tested on: Vero E6; assay: relative viability EC50 (midpoint between 100% and the lowest measured viability); higher = less toxic
[15] = tested on: Vero E6; assay: drug sensitivity score (DSS) for viability; higher = more toxic; extreme values may be limits of the assay

SMILES	cell viability ([1]; 1 nM)	cell viability ([1]; 10 nM)	cell viability ([1]; 100 nM)	cell viability ([1]; 1000 nM)	cell viability ([1]; 10000 nM)	cell viability ([2]; 1 nM)	cell viability ([2]; 10 nM)	cell viability ([2]; 100 nM)	cell viability ([2]; 1000 nM)	cell viability ([2]; 10000 nM)	cell viability ([3]; 1 nM)	cell viability ([3]; 10 nM)	cell viability ([3]; 100 nM)	cell viability ([3]; 1000 nM)	cell viability ([3]; 10000 nM)	cell viability ([4]; 1 nM)	cell viability ([4]; 10 nM)	cell viability ([4]; 100 nM)	cell viability ([4]; 1000 nM)	cell viability ([4]; 10000 nM)	relative viability EC50 [5]	relative viability EC50 [6]	relative viability EC50 [7]	relative viability EC50 [8]	drug sensitivity score [9]	drug sensitivity score [10]	drug sensitivity score [11]	drug sensitivity score [12]	cell viability ([13]; 1 nM)	cell viability ([13]; 10 nM)	cell viability ([13]; 100 nM)	cell viability ([13]; 1000 nM)	cell viability ([13]; 10000 nM)	relative viability EC50 [14]	drug sensitivity score [15]
CC[C@@H](C(N)=O)N1CCCC1=O [levetiracetam]	96.2%	91.6%	100%	95.2%	101%	87.4%	91.8%	98.6%	103%	103%	93.2%	105%	90%	104%	92%	103%	98.2%	101%	97.2%	103%	> 10 µM	> 10 µM	> 10 µM	> 10 µM	0	0	0	0							
O=C(O)[C@@H]1C[C@@H](C2CCCCC2)CN1C(=O)CP(=O)(O)CCCCc1ccccc1 [fosinoprilat]	97.6%	88.5%	105%	90.4%	102%	99.4%	98.8%	98.4%	95.1%	108%	105%	104%	96.2%	101%	101%	99.6%	93.7%	97.5%	95%	97.1%	> 10 µM	> 10 µM	> 10 µM	> 10 µM	0	0	0	0							
NC(=O)[C@@H](CC1CC1)[C@@H](CCC(F)(F)F)C(=O)N[C@H]1N=C(c2ccccc2)c2cccc(F)c2NC1=O	97.7%	98.4%	96.5%	96.2%	85.2%	110%	99.4%	91.9%	85.8%	99.1%	94.3%	106%	105%	91.9%	106%	99%	96.4%	94.1%	94.1%	92.7%	> 10 µM	> 10 µM	> 10 µM	> 10 µM	0.4	0	0	0							
CCCOc1ccc2c(c1)CC[C@@H]1[C@@H]2CC[C@]2(C)[C@@H](OC)CC[C@@H]12 [promestriene]	97.9%	97.4%	97.7%	90.4%	98.5%	99%	90.9%	97.5%	92.3%	104%	102%	107%	103%	93%	97.9%	93.5%	105%	96.2%	96.5%	99.9%	> 10 µM	> 10 µM	> 10 µM	> 10 µM	0	0	0	0							
CC(C)(C)NC(=O)[C@@H]1CN(Cc2cccnc2)CCN1C[C@@H](O)C[C@@H](Cc1ccccc1)C(=O)N[C@H]1c2ccccc2C[C@H]1O [indinavir]						97%	107%	98.4%	102%	97.9%	99.4%	88.7%	109%	93.3%	79.8%	98.4%	98.2%	92.5%	103%	93.5%		> 10 µM	> 10 µM	> 10 µM		0	1.4	0	117%	78%	97.6%	104%	89.9%	> 10 µM	0
COc1ccncc1C(=O)NC(=O)Nc1ccc(-c2ccccc2)c(C(F)(F)F)c1 [S1P1-agonist-III]	100%	90.6%	95.5%	99.1%	87.8%	110%	97.5%	93.2%	99.2%	91.1%	95.3%	104%	95.5%	107%	97.1%	106%	107%	101%	98.4%	98.2%	> 10 µM	> 10 µM	> 10 µM	> 10 µM	0	0	0	0							
COc1cc2c(cc1OC)CN(C(=O)/C=C/c1c(-c3ccccc3)n(C)c3ncccc13)CC2 [SIS3]	93.9%	94.5%	88.8%	96.5%	71.1%						98.9%	106%	106%	106%	106%	99%	101%	94.9%	99.9%	96.2%			> 10 µM	> 10 µM	1.8		0	0	100%	93.3%	98.8%	98.2%	100%	> 10 µM	0
Cc1cccc(NC(=O)CN2CCC(c3ccccn3)CC2)c1	98.7%	101%	95%	91.3%	93.9%	110%	101%	109%	108%	98.1%	108%	103%	97%	102%	101%	98.9%	97.9%	94.7%	98.1%	93.9%	> 10 µM	> 10 µM	> 10 µM	> 10 µM	0	0	0	0							
COC(=O)C1=C(C)NC(C)=C(C(=O)OC(C)C)[C@@H]1c1cccc2nonc12 [isradipine]	107%	96.2%	99.3%	93.5%	94.2%	101%	98.9%	91.7%	97.9%	95.2%	98.9%	103%	105%	106%	95.9%	103%	97.9%	104%	102%	98.5%	> 10 µM	> 10 µM	> 10 µM	> 10 µM	0	0	0	0							
NC1(C(=O)N[C@@H](CCO)c2ccc(Cl)cc2)CCN(c2ncnc3[nH]ccc23)CC1 [AZD5363]	100%	102%	93.3%	74.8%	54.6%	113%	101%	102%	85.6%	75.6%	99.3%	101%	93.8%	84.8%	66.6%	97.4%	94.7%	92.5%	90.9%	57.5%		> 10 µM			5.3	2.5	3	3.6	98.7%	99.9%	96.4%	94.8%	90.8%	> 10 µM	0
COc1ccccc1OCCNCC(O)COc1cccc2[nH]c3ccccc3c12 (stereo unspecified) [carvedilol]						97%	92.2%	102%	89.2%	97.4%	99.3%	108%	88.7%	100%	86.6%	96.4%	100%	103%	93.1%	92.3%		> 10 µM	> 10 µM	> 10 µM		0	0.1	0	100%	102%	94.2%	107%	94.7%	> 10 µM	0
O=C(O)COc1ccc(/C=C2\SC(=O)NC2=O)cc1 [TCS-3035]	105%	107%	97.3%	104%	102%	101%	97.6%	97.3%	103%	106%	103%	104%	103%	105%	95.3%	102%	94.9%	97.8%	99.8%	100%	> 10 µM	> 10 µM	> 10 µM	> 10 µM	0	0	0	0							
CC(=O)Oc1ccccc1C(=O)Nc1ncc([N+](=O)[O-])s1 [nitazoxanide]	97.3%	98.8%	102%	104%	61.7%	102%	103%	107%	99.1%	98.8%	97.1%	95.6%	94.5%	91%	65.3%	99.2%	98.5%	101%	93.3%	91.4%		> 10 µM		> 10 µM	1.6	0	2.8	0	98.2%	98.7%	106%	102%	96.9%	> 10 µM	0
Clc1ccccc1C(c1ccccc1)(c1ccccc1)n1ccnc1 [clotrimazole]	96%	97.1%	96.2%	91.9%	71%	94.7%	102%	92.9%	96.4%	94%	96.9%	98%	114%	99.8%	56.9%	104%	104%	95.9%	99.5%	72%		> 10 µM			2.2	0	2.2	1.2	93.8%	95.3%	100%	99.2%	89.9%	> 10 µM	0
Cc1nc(NC(=O)N2CCC[C@H]2C(N)=O)sc1-c1ccnc(C(C)(C)C(F)(F)F)c1 [alpelisib]	107%	102%	89.8%	91.5%	52.3%	87.4%	93.8%	88.4%	60.8%	25.7%	102%	99.7%	89.6%	71%	60.1%	102%	93.3%	96.8%	89.9%	73.7%		0.743 µM			3.9	9.2	6.1	1.8	104%	104%	98.4%	94.7%	80.3%	> 10 µM	1.2
